Reference: patent US20230242552A1, “Nitrogen-Containing Heterocyclic Compound, Preparation Method Therefor and Use Thereof” (280 Bio, Inc, priority 2022, published 2023)

Key:
Conditions in all cases: CellTiter Glo, 120 hours incubation
[1] = system: AGS (gastric cancer cell line with KRAS G12D mutation); assay: Proliferation inhibition measured by CTG, AGS; assay type: cell-based
Procedure: (§1) NCI-H358 is a human non-small cell lung cancer cell line with KRAS G12C mutation; AGS is a gastric cancer cell line with KRAS G12D mutation; SW480 is a colon cancer cell lines with KRAS G12V mutation; A375 is a wild type malignant melanoma cell line. The proliferation inhibitory effect of the compounds on various mutations was evaluated by determining the proliferation inhibitory activity of the compounds on these cell lines.
(§2) The assay was conducted on either 384-well plates or 96-well plates. The procedures are as follows:
(§3) The cell suspensions were added to 384- or 96-well plates (384-well plate: 40 μL; 96-well plate: 100 μL) except for peripheral wells. The plates were incubated in a carbon dioxide incubator overnight. Prepared compounds (10 concentration gradients by serial 3-fold dilution) were added to the wells. The cell plates were incubated in a carbon dioxide incubator for 120 hours. CellTiter Glo reagent (384 well plate: 25 μL; 96 well plate: 100 μL) was added to the 384- or 96-well plates. The plates were shaken for 10 minutes away from light, and incubated for 10 minutes. The plates were read by EnVision system. Inhibition curves were plotted using XLFit and IC50 values were calculated. “IC50>10 μM” is denoted by “*”, “10 μM≥IC50>1 μM” is denoted by […] is denoted by “***”, “---” means no data.

[2] = system: A375 (wild type malignant melanoma cell line); assay: Proliferation inhibition measured by CTG, A375; assay type: cell-based
Procedure: as §1, §2, §3

[3] = system: SW480 (colon cancer cell lines with KRAS G12V mutation); assay: Proliferation inhibition measured by CTG, SW480; assay type: cell-based
Procedure: as §1, §2, §3

[4] = system: NCI-H358 (KRAS G12C mutation); assay: Proliferation inhibition measured by CTG, NCI-H358; assay type: cell-based, human
Procedure: as §1, §2, §3

Row | Structure (SMILES) | IC50 ([1]; 120 h) [nM] | IC50 ([2]; Homo sapiens, A-375, 120 h) [nM] | IC50 ([3]; Homo sapiens, SW480, 120 h) [nM] | IC50 ([4]; Homo sapiens, NCI-H358, 120 h) [nM] | IC50 [2] [nM] | IC50 [4] [nM] | IC50 [1] [nM] | IC50 [3] [nM]
1 | C[C@@H]1Cc2cncc(F)c2CN1c1nc(OC[C@@H]2CCCN2C)nc2cc(-c3ccc(F)c4sc(N)nc34)ccc12 [Compound 27] | ≤ 1000 | ≤ 1000 | ≤ 1000 | ≤ 1000 |  |  |  | 
2 | C[C@H]1Cc2cncc(F)c2CN1c1nc(OC[C@@H]2CCCN2C)nc2c1CCN(c1cccc3cnccc13)C2 [Compound 19] | 1000 to 10000 | > 10000 | 1000 to 10000 | 1000 to 10000 |  |  |  | 
3 | C[C@@H]1Cc2cncc(F)c2CN1c1nc(OC[C@@H]2CCCN2C)nc2cc(-c3cccc4cccnc34)ccc12 [Compound 33] | ≤ 1000 | ≤ 1000 | ≤ 1000 | ≤ 1000 |  |  |  | 
4 | C[C@H]1Cc2cncc(F)c2CN1c1nc(OC[C@@H]2CCCN2C)nc2cc(-c3cccc4cccc(Cl)c34)ccc12 [Compound 20] | ≤ 1000 | 1000 to 10000 | ≤ 1000 | 1000 to 10000 |  |  |  | 
5 | C[C@@H]1Cc2cncc(F)c2CN1c1nc(OC[C@H]2CCCCN2C)nc2c1CCN(c1cccc3cccc(F)c13)C2 [Compound 30] | ≤ 1000 | ≤ 1000 | ≤ 1000 | ≤ 1000 |  |  |  | 
6 | C[C@@H]1Cc2cncc(F)c2CN1c1nc(O[C@@H](C)CN(C)C)nc2c1CCN(c1cccc3cccc(F)c13)C2 [Compound 29] | ≤ 1000 | 1000 to 10000 | ≤ 1000 | ≤ 1000 |  |  |  | 
7 | CC1Cc2cncc(F)c2CN1c1nc(OC[C@@H]2CCCN2C)nc2c1CO[C@H](c1cccc3cccc(Cl)c13)C2 (some centres unmarked) [Compound 11] | ≤ 1000 | 1000 to 10000 |  | 1000 to 10000 |  |  |  | 
8 | C[C@H]1Cc2cncc(F)c2CN1c1nc(OC[C@@H]2CN(C)CCN2C)nc2c1CCN(c1cccc3cccc(F)c13)C2 [Compound 25] | 1000 to 10000 | 1000 to 10000 | 1000 to 10000 | 1000 to 10000 |  |  |  | 
9 | COc1cc2c(cn1)CCN(c1nc(OC[C@@H]3CCCN3C)nc3c1CCN(c1cccc4cccc(Cl)c14)C3)C2 [Compound 2] | 1000 to 10000 | 1000 to 10000 |  | 1000 to 10000 |  |  |  | 
10 | CC1Cc2cncc(F)c2CN1c1nc(OC[C@@H]2CCCN2C)nc2c1CCN(c1cc(O)cc3cccc(Cl)c13)C2 (some centres unmarked) [Compound 5-2] |  |  |  |  | ≤ 1000 | ≤ 1000 |  | 
11 | C[C@H]1Cc2cncc(F)c2CN1c1nc(OC[C@H]2COCCN2C)nc2c1CCN(c1cccc3cccc(F)c13)C2 [Compound 24] | 1000 to 10000 | > 10000 | 1000 to 10000 | 1000 to 10000 |  |  |  | 
12 | C#Cc1c(F)ccc2cc(O)cc(N3CCc4c(nc(OC[C@@H]5CCCN5C)nc4N4Cc5c(F)cncc5CC4C)C3)c12 (some centres unmarked) [Compound 7] | ≤ 1000 | 1000 to 10000 | 1000 to 10000 | 1000 to 10000 |  |  |  | 
13 | C[C@H]1Cc2cncc(F)c2CN1c1nc(OC[C@@H]2CCCN2C)nc2c1CCN(c1cccc3cccnc13)C2 [Compound 17] | ≤ 1000 | 1000 to 10000 | ≤ 1000 | ≤ 1000 |  |  |  | 
14 | C[C@H]1Cc2cncc(F)c2CN1c1nc(OC[C@@H]2CCCN2C)nc2cc(-c3cccc4cccc(F)c34)ccc12 [Compound 21] | ≤ 1000 | 1000 to 10000 | 1000 to 10000 | 1000 to 10000 |  |  |  | 
15 | C[C@@H]1Cc2cncc(F)c2CN1c1nc(OC[C@H]2CCCN2C)nc2c1CCN(c1cccc3cccc(F)c13)C2 [Compound 31] | ≤ 1000 | ≤ 1000 | ≤ 1000 | ≤ 1000 |  |  |  | 
16 | CC1Cc2cncc(F)c2CN1c1nc(OC[C@@H]2CCCN2C)nc2c1CCN(c1cccc3cccc(Cl)c13)C2 (single isomer, unassigned) [Compound 4-2] |  |  |  |  | ≤ 1000 | ≤ 1000 | ≤ 1000 | ≤ 1000
17 | C[C@H]1Cc2cncc(F)c2CN1c1nc(OC[C@@H]2CCCN2C)nc2c1CCN(c1cncc3ccccc13)C2 [Compound 13] | 1000 to 10000 | > 10000 | 1000 to 10000 | 1000 to 10000 |  |  |  | 
18 | C[C@@H]1Cc2cncc(F)c2CN1c1nc(OC[C@@H]2CCCCN2C)nc2c1CCN(c1cccc3cccc(F)c13)C2 [Compound 28] | ≤ 1000 | ≤ 1000 | ≤ 1000 | ≤ 1000 |  |  |  | 
19 | C[C@H]1Cc2cncc(F)c2CN1c1nc(OC[C@@H]2CCCN2C)nc2c1CCN(c1cccc3cccc(F)c13)C2 [Compound 15] | ≤ 1000 | 1000 to 10000 | ≤ 1000 | ≤ 1000 |  |  |  | 
20 | CC1Cc2cnccc2CN1c1nc(OC[C@@H]2CCCN2C)nc2c1CCN(c1cc(O)cc3cccc(Cl)c13)C2 (some centres unmarked) [Compound 6] | ≤ 1000 |  | ≤ 1000 |  |  |  |  | 

Row | Structure (SMILES) | IC50 ([1]; 120 h) [nM] | IC50 ([2]; Homo sapiens, A-375, 120 h) [nM] | IC50 ([3]; Homo sapiens, SW480, 120 h) [nM] | IC50 ([4]; Homo sapiens, NCI-H358, 120 h) [nM] | IC50 [2] [nM] | IC50 [4] [nM] | IC50 [1] [nM] | IC50 [3] [nM]
21 | CC1Cc2cnccc2CN1c1nc(OC[C@@H]2CCCN2C)nc2c1CCN(c1cccc3cccc(Cl)c13)C2 (some centres unmarked) [Compound 3-1] | 1000 to 10000 | 1000 to 10000 | 1000 to 10000 | 1000 to 10000 |  |  |  | 
22 | C[C@@H]1Cc2cncc(F)c2CN1c1nc(OC[C@@H]2CCCN2C)nc2c1CCN(c1cncc3cccc(Cl)c13)C2 [Compound 34] | ≤ 1000 | ≤ 1000 |  |  |  |  |  | 
23 | CC1Cc2cncc(F)c2CN1c1nc(OC[C@@H]2CCCCN2C)nc2c1CCN(c1cccc3cccc(Cl)c13)C2 (some centres unmarked) [Compound 9-2] |  |  |  |  | ≤ 1000 | ≤ 1000 | ≤ 1000 | ≤ 1000
24 | CC1Cc2cncc(F)c2CN1c1nc(OC[C@@H]2CCCCN2C)nc2c1CCN(c1cccc3cccc(Cl)c13)C2 (some centres unmarked) [Compound 9-1] | ≤ 1000 | ≤ 1000 | ≤ 1000 | ≤ 1000 |  |  |  | 
25 | C[C@H]1Cc2cncc(F)c2CN1c1nc(OC[C@@H]2CCCN2C)nc2c1CCN(c1ccnc3ccccc13)C2 [Compound 16] | 1000 to 10000 | 1000 to 10000 | 1000 to 10000 | 1000 to 10000 |  |  |  | 
26 | CC1Cc2cncc(F)c2CN1c1nc(OC[C@@H]2CCCN2C)nc2c1CCN(c1cccc3cccc(Cl)c13)C2 (some centres unmarked) [Compound 4] | ≤ 1000 |  | ≤ 1000 |  |  |  |  | 
27 | CC1Cc2cncc(F)c2CN1c1nc(OC[C@@H]2CCCN2C)nc2c1CO[C@H](c1cccc3cccc(Cl)c13)C2 (single isomer, unassigned) [Compound 11-1] |  |  |  |  | 1000 to 10000 | 1000 to 10000 | 1000 to 10000 | 
28 | CC1Cc2cnccc2CN1c1nc(OC[C@@H]2CCCN2C)nc2c1CCN(c1cccc3cccc(Cl)c13)C2 (some centres unmarked) [Compound 3] |  |  |  |  | ≤ 1000 | ≤ 1000 | ≤ 1000 | ≤ 1000
29 | C[C@@H]1Cc2cncc(F)c2CN1c1nc(OC[C@@H]2CCCN2C)nc2c1CCN(c1cccc3cccc(F)c13)C2 [Compound 35] | ≤ 1000 | ≤ 1000 |  |  |  |  |  | 
30 | CC1Cc2cncc(F)c2CN1c1nc(OC[C@@H]2CCCN2C)nc2c1CCN(c1cc(O)cc3cccc(Cl)c13)C2 (some centres unmarked) [Compound 5] | ≤ 1000 |  | ≤ 1000 |  |  |  |  | 
31 | C[C@@H]1Cc2cncc(F)c2CN1c1nc(OC[C@@H]2CCCCN2C)nc2c(F)c(-c3cccc4cccc(F)c34)ncc12 [Compound 36] | ≤ 1000 |  |  |  |  |  |  | 
32 | C[C@H]1Cc2cncc(F)c2CN1c1nc(OC[C@@H]2CCCN2C)nc2c1CCN(c1cccc3ccncc13)C2 [Compound 18] | 1000 to 10000 | 1000 to 10000 | 1000 to 10000 | 1000 to 10000 |  |  |  | 
33 | C[C@H]1Cc2cncc(F)c2CN1c1nc(OC[C@H]2CCCCN2C)nc2c1CCN(c1cccc3cccc(F)c13)C2 [Compound 23] | ≤ 1000 | 1000 to 10000 | 1000 to 10000 | 1000 to 10000 |  |  |  | 
34 | CC1Cc2cnccc2CN1c1nc(OC[C@@H]2CCCN2C)nc2c1CCN(c1cccc3cccc(Cl)c13)C2 (some centres unmarked) [Compound 3-2] |  |  |  |  | ≤ 1000 | ≤ 1000 | ≤ 1000 | ≤ 1000
35 | C[C@H]1Cc2cncc(F)c2CN1c1nc(OC[C@H]2CCCN2C)nc2c1CCN(c1cccc3cccc(F)c13)C2 [Compound 22] | ≤ 1000 | 1000 to 10000 | ≤ 1000 | ≤ 1000 |  |  |  | 
36 | C[C@H]1Cc2cncc(F)c2CN1c1nc(OC[C@@H]2CCCN2C)nc2c1CCN(c1cccc3ncccc13)C2 [Compound 14] | 1000 to 10000 | 1000 to 10000 | 1000 to 10000 | 1000 to 10000 |  |  |  | 
37 | C[C@@H](CN(C)C)Oc1nc2c(c(N3Cc4c(F)cncc4C[C@@H]3C)n1)CCN(c1cccc3cccc(F)c13)C2 [Compound 26] | 1000 to 10000 | 1000 to 10000 | 1000 to 10000 | 1000 to 10000 |  |  |  | 
38 | CN1CCC[C@H]1COc1nc2c(c(N3CCc4cnccc4C3)n1)CCN(c1cccc3cccc(Cl)c13)C2 [Compound 1] |  | ≤ 1000 |  | ≤ 1000 |  |  |  | 
39 | CC1Cc2cncc(F)c2CN1c1nc(OC[C@@H]2CCCN2C)nc2c1CCN(c1cc(O)cc3cccc(Cl)c13)C2 (some centres unmarked) [Compound 5-1] |  | ≤ 1000 |  | ≤ 1000 |  |  |  | 
40 | CC1Cc2cncc(F)c2CN1c1nc(OC[C@@H]2CCCN2C)nc2c1CO[C@H](c1cccc3cccc(Cl)c13)C2 (single isomer, unassigned) [Compound 11-2] |  |  |  |  | 1000 to 10000 | 1000 to 10000 | ≤ 1000 | 
